row,Compound,melting point
1,CCOC(=O)c1cc2c(C)c(C)cc(N(CC)S(=O)(=O)c3cccs3)c2[nH]1,134 to 135 °C
2,O=C(CCCN1CCC(O)CC1)c1ccccc1,101 to 102 °C
3,CCOC(=O)c1cc2c(C(F)(F)F)cc(CP(=O)(OCC)OCC)cc2n1C,95 to 96.5 °C
4,CC(C)(C)CC(=O)Nc1cc(-c2ccnc3c(C(=O)c4cccs4)cnn23)ccc1F,180 to 181 °C
5,CCCCCNC1=CC(=O)c2c(OC)ccc(OC)c2C1=O,102 to 103 °C
6,COC(=O)C=CC1C(C(=O)OC(C#N)c2cccc(Oc3ccccc3)c2)C1(C)C (centres undefined),98 °C
7,CS(=O)c1nnc2c(=O)c3ccccc3ccn12 (centres undefined),208 to 211 °C
8,CCCCCc1ccc(CCc2ccc(-c3ccc(OC(F)(F)F)cc3)cc2)cc1,60 °C
9,O=S1(=O)N=CN(C2CC2)c2cc(Br)ccc21,268 to 271 °C
10,CC(C)=C1C(=O)N(c2ccc(Cc3ccc(N)cc3)cc2)C(=O)/C1=C(\C)c1cc(-c2ccccc2)sc1C,82 to 94 °C
11,CC(=O)NC[C@H]1CN(c2ccc(N3CCC(O)CC3)cc2)C(=O)O1,64 to 66 °C
12,C=CC[C@H]1CC(C(=O)OCC[Si](C)(C)C)=C[C@@H](OC(C)C)[C@@H]1NC(C)=O,64 to 65 °C
13,Cc1cc2c(c(C)c1NC(=O)CC(C)(C)C)C(c1ccccc1)CO2 (centres undefined),158 to 159 °C
14,CCN(CC)CCN(CCN1CCCCC1)c1ccc(-c2nc3cc(Cl)c(Cl)cc3[nH]2)cc1,160 to 163 °C
15,Cc1cc(-c2cc(C(F)(F)F)n3ncc(-c4nc(-c5ccc(N)nc5)no4)c3n2)ccc1C(F)(F)F,220 °C
16,Cc1ccn2cc(CCc3ccc4nc(N)oc4c3)nc2c1,262 to 264 °C
17,O=C(O)c1cccc(NCCOCc2ccccc2)c1C(=O)O,158 to 160 °C
18,COc1ccc2c(c1)COc1ccc(CC(=O)O)cc1C2=O,163 to 165 °C
19,COc1ccc(OC(=O)N2CCCC2=O)cc1,133 to 134 °C
20,Cn1cccc1CN1CCCC1=O,44.5 to 47.5 °C
21,CN1C(=O)C(C2=COc3cc4ccccc4cc3O2)=C(c2cn(C(=O)OC(C)(C)C)c3ccccc23)C1=O,158 °C
22,CCCOc1ccc(NC=C(C(=O)OCC)C(=O)OCC)cc1C1=NC(=O)C2=NN=NC2=N1,226 to 227 °C
23,O=C(O)c1cc(CBr)on1,143 to 148 °C
24,CN(C)C(=O)n1cc(C(=O)C2CSC(c3cccnc3)N2)c2ccc(OCc3ccc(F)cc3)cc21 (centres undefined),71 to 74 °C
25,Cc1nc(-c2ccccc2)nc(-c2cccc([N+](=O)[O-])c2)c1C(=O)NCN1CCN(C)CC1,129 to 131 °C

row,Compound,melting point
1,O=[N+]([O-])c1cc(Cl)c(OCc2ccccc2-c2ccccc2)c(Cl)c1,83 to 84.5 °C
2,O=C(OCC(F)(F)F)c1ncn2c1CN=C(c1ccccc1)c1cc(Br)ccc1-2,202 to 204 °C
3,NC(=O)N(O)CCc1ccc(Sc2cccc(C(F)(F)F)c2)s1,124 to 126 °C
4,COC(=O)C(C)c1noc2cc(F)c(N3C(=O)C(C)=C(C)C3=O)cc12 (centres undefined),106 to 107 °C
5,Cc1cc(C)nc(NC(=O)Cc2ccc(Br)s2)c1,87 °C
6,N#Cc1c(-c2ccc(Cl)c(Cl)c2)cc(C2CC2)nc1Cl,158 to 160 °C
7,COc1cc(C(=O)c2cccs2)cc([N+](=O)[O-])c1OC,102 to 104 °C
8,CN1CC=C(c2c[nH]c3ccc(NC(=N)c4cccs4)cc23)C(F)C1 (centres undefined),127 to 129 °C
9,CCCCCCCCCCCCn1nnc(CCC(=O)Nc2ccc(F)cc2F)n1,86 to 87 °C
10,O=C(NC(=O)N(SN1CCCC1=O)c1ccc(Oc2ccc(C(F)(F)F)cc2Cl)cc1F)c1c(F)cccc1F,125 to 126 °C
11,COC1=C(OC)C(=O)C(CCCCCCCCCC=O)=C(C)C1=O,44.5 to 46.5 °C
12,O=c1[nH]c(-c2ccccn2)c(I)c(=O)n1-c1ccc(OC(F)(F)F)cc1,215 to 217 °C
13,N#Cc1ccc(CN2c3ccc(Cl)cc3C=C(C(=O)O)C2C(F)(F)F)cc1 (centres undefined),258 to 260 °C
14,CC(=O)CCn1[nH]c(=O)c2ccccc2c1=O,152 to 153 °C
15,Cc1nc(Cc2ccccc2)c(CO)c(CO)c1O,158 to 159 °C
16,COc1ccc(OC(C(=O)O)c2ccccc2)cc1 (centres undefined),108 to 110 °C
17,O=c1c2c(cnn1-c1ccccc1)C(Cc1ccccc1)NCCS2 (centres undefined),174 to 175 °C
18,O=C(c1c2n(c3ccccc13)CCNCC2)C(F)(F)F,131 to 133 °C
19,N#Cc1cc2ccccc2[nH]1,94 to 95 °C
20,CNC(=O)Nc1cccc(-c2noc(C(F)(F)F)n2)c1,141 to 143 °C
21,O=C(O)c1cc2ccccc2nc1N[C@H](Cc1ccccc1)C(=O)O,140 to 142 °C
22,CC(C)n1nc(-c2cnc(N)nc2-c2ccccc2C(F)(F)F)ccc1=O,160 to 161 °C
23,CN(C)c1cccc2c(S(=O)(=O)NCC(=O)N3CCC[C@H]3C(=O)OC(C)(C)C)cccc12,60 to 67 °C
24,COc1ccc(C2(C#Cc3cc(N4CN=C(C)O4)cs3)CCC(=O)CC2)cc1OC1CCCC1,90 to 91 °C
25,CCCC1=C(C(=O)OCC)C(c2c(OC)ccc3ccccc23)c2c[nH]nc2N1 (centres undefined),188 to 191 °C

row,Compound,melting point
1,COc1cc(C=C(Br)Br)cc(OC)c1OCc1ccccc1,76 to 77 °C
2,CN(C)CCCN1C(=O)Nc2ccccc2C1C1CCCCC1 (centres undefined),124 to 125 °C
3,CN(C)C(=O)Oc1c(N2CCCC2)c(=O)n(-c2ccccc2)c2ncccc12,218 to 220 °C
4,COc1ccc(C)c(NC(=O)CC2C3CC4CC(C3)CC2C4)c1 (centres undefined),193 to 196 °C
5,CC(C)=CCc1cc2cc(-c3cc(O)cc(O)c3)oc2cc1O,183 to 184 °C
6,COC(=O)C(=CNc1ccc(F)cc1)C(=O)C=Cc1ccc(Cl)cc1,166 to 168 °C
7,COC(=O)c1ccc2c(c1)C(=O)C1(CC1)O2,89 to 91 °C
8,Cc1nc(-c2cccc(OC(C)C)c2)sc1C(=O)O,177 to 179 °C
9,C[Si](C)(C)OCCCc1c[nH]c2ccccc12,34 to 38 °C
10,CCCC(CCC)Nc1cc(C(=O)O)ccc1N1C(=O)CCC1(CO)CO,227 to 229 °C
11,COc1ccc2cccc(C(O)CNC(C)=O)c2c1 (centres undefined),173 to 175 °C
12,c1ccc2cc(CCNc3ncnc4ccccc34)ccc2c1,172 to 174 °C
13,Cc1ccc(SCc2c(C(C)C)nc(C(C)C)c(CO)c2-c2ccc(F)cc2)cc1,90 to 91 °C
14,O=c1ccn(-c2ccc3[nH]c(=O)c(=O)[nH]c3c2)cc1,> 300 °C
15,CCOc1cc2c(Nc3cc(OC)c(Cl)cc3Cl)c(C#N)cnc2cc1C#CCCN1CCN(C)CC1,158 to 160 °C
16,O=C(/C=C/c1c[nH]c2ccccc12)c1ccccn1,141 to 145 °C
17,CCOC(=O)N1CCC(n2cnc(-c3ccc(F)cc3)c2-c2ccnc(NC)n2)CC1,205 to 206 °C
18,NC(=O)c1nc(-c2cccc(O)c2)nc2c1[nH]c(=O)n2-c1ccccc1-c1ccccc1,293 to 296 °C
19,CCOC(=O)c1c(-c2ccc(F)cc2)c2ccccn2c1C(C)C,99 to 100 °C
20,O=C(Nc1ccncc1)c1ccc(-c2ccc3nnn(Cc4ccc5ncccc5c4)c3n2)cc1F,217 to 219 °C
21,CC(C(=O)O)c1ccc(C=C2CCCC2O)cc1 (centres undefined),125 to 132 °C
22,CC(C)Cn1c(=O)n(C)c(=O)c2nc(-c3ccc(/C=C/C(=O)O)cc3)[nH]c21,> 300 °C
23,COc1ccc2c(c1)c(CC(=O)O)c(C)n2C(=O)c1cccc(Cl)c1,90 to 92 °C
24,COc1ccc(S(=O)(=O)N2C(=O)C(OC(=O)Oc3ccccc3)(c3ccccc3C(F)(F)F)c3cc(Cl)ccc32)c(OC)c1 (centres undefined),191 °C
25,CCCCCCCCCCCCCCCCCCOc1cc(N)cc(OCc2ccccc2)c1,57 to 59 °C

row,Compound,melting point
1,CC1=NN(CC2CC2)CC2=C3C1=NN(c1ccc(C(C)C)cc1Br)C(=O)N3CC2,89 to 90 °C
2,COc1ccc(N2C(=O)C3=C(SCCO3)C2=O)nn1,157 °C
3,CN(C)C(=O)c1c(Cl)csc1-c1ncc(C(F)(F)F)cc1Cl,85 to 86 °C
4,CC1Cc2c(N3CCC(NC(=O)OC(C)(C)C)C3)c(F)cc3c(=O)[nH]c(=O)n1c23 (centres undefined),203 to 205 °C
5,COc1cc2c(cc1Nc1ncc(C(F)(F)F)c(Nc3ccc(N4CCOCC4)cc3OC)n1)CCOC(=O)N2C,232 to 234 °C
6,CC1(C)CCc2c(N3CCCC3)nc3sc4c(NCCc5c[nH]cn5)ncnc4c3c2C1,192 to 193 °C
7,COC(=O)c1c([N+](=O)[O-])cccc1S(N)(=O)=O,227 to 229 °C
8,COc1cccc2cccc(S(=O)(=O)N(C)C)c12,146 to 149 °C
9,Cc1nn(-c2ccccc2)c(=O)c2c1c1c(Br)cccc1n2C,189 to 190 °C
10,CN(C)C1CCN(c2cc3ccccc3c(=O)[nH]2)C1 (centres undefined),233 to 234 °C
11,Cc1cccc(-c2ccccc2C(=O)NCCc2ccccc2)c1N1C(=O)c2ccccc2C1=O,156 °C
12,O=c1oc(C(F)F)nc2c(C(F)(F)F)cccc12,82 °C
13,COc1ccc(/C=C/C(=O)Nc2ccccc2C(=O)OCC(=O)NCC(C)(C)SN=O)cc1OC,135 to 137 °C
14,CC(C)(C)OC(=O)NCCNC(=O)c1cc(-c2ccccc2)c(=O)n2c1-c1ccccc1C2,238 to 240 °C
15,Cc1cc(Oc2ccc(N)cc2)ccc1-c1ccc(Oc2ccc(N)cc2)cc1C,140 °C
16,Cc1cc(C(=O)Nc2ccn3cc(-c4ccccc4)nc3n2)cc(Cl)n1,148 to 151 °C
17,Cc1cc2cc(C3(O)CCN(C)CC3)ccc2o1,118 to 120 °C
18,COC(=O)c1ccc2c(nnn2C)c1C(=O)OC,146 to 147 °C
19,COc1ccc2cc3c(=O)n(C)cc(C(=O)NCCN(C)C)c3nc2c1,213 to 215 °C
20,CCCCNc1nc(-c2ccccc2)co1,52 to 53 °C
21,c1ccc(COc2nn3c(-c4cc(-c5cccs5)on4)nnc3c3ccccc23)nc1,213 to 215 °C
22,Cc1oc(-c2ccccc2)nc1CCC(=O)c1ccc(CCCC2OC(=O)NC2=O)cc1 (centres undefined),184 to 185 °C
23,CCC(=O)NCCC1=C(Cc2ccccc2)Cc2ccc(OC)cc21,149 to 151 °C
24,CC(=O)c1cccc(-c2ccc(Oc3ncccc3C(=O)O)cc2)c1,188 °C

# Source: a melting point compilation (Tetko et al.; mined from patent text by program, amines drawn as free bases though some values may be those of a salt)
